Read-outs that look alike come from different tables or passages of the source.
Molecular target: T1, P2X7 receptor (Homo sapiens, UniProt Q99572)
T1 construct: host or cells: THP-1 cells differentiated with LPS and IFN-γ
T1 sequence (Q99572 1-595): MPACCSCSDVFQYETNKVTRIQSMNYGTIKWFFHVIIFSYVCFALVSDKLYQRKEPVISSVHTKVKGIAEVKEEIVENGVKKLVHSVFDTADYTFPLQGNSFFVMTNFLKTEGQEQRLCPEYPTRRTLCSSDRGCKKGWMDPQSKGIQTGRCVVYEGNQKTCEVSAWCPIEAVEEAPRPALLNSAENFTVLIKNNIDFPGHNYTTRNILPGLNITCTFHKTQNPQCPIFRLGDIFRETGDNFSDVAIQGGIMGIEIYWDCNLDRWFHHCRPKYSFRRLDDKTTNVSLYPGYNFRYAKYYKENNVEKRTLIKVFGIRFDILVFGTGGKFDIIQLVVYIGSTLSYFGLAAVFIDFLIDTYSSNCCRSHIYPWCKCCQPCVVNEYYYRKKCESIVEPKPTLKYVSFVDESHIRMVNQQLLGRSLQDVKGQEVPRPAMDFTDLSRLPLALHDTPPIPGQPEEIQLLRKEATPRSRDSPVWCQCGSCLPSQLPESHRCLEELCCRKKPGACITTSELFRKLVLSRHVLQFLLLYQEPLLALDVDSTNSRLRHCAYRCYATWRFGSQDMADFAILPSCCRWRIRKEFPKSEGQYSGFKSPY
Experiment: IL-1β release assay in differentiated THP-1 cells stimulated with BzATP (Example 9)
Assay type: cell-based
Conditions: differentiated THP-1 cells, BzATP 250 uM; for inhibition at 0.3 µM: 0.3 μM compound, read-out: IL-1β % Inhib. @ 0.3 μM; for inhibition at 0.1 µM: 0.1 μM compound
Summary of the method: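 IC50 derived by four-parameter logistic fit of percent inhibition of IL-1β release, measured by ELISA after 45 min stimulation with 250 uM BzATP. Cells: THP-1 differentiated 16 h with 100 ng/mL LPS plus IFN-γ, LPS-primed 2 h, compound added 30 min beforehand.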

[1] = '*' class symbols, read-out: IL-1β % Inhib. (asterisk classes, 0.1 μM)
[2] = symbols * to ****, read-out: IL-1β % Inhib. (asterisk symbols: at 0.1 μM)

SMILES	inhibition at 0.3 µM (symbols + to ++++)	other results
COc1ccc(CC(=O)Nc2cccc3c(=O)n(CCN(C)C)ccc23)cc1C [Compound 1178]		inhibition at 0.3 µM ('+' class symbols): 0 to 25%
Cc1ccc(Cl)c(C(=O)Nc2cccc3c(=O)n(CCN(C)C)ccc23)c1 [Compound 1179]		inhibition at 0.3 µM ('+' class symbols): 0 to 25%
Cc1ccc(Cl)cc1C(=O)Nc1cccc2c(=O)n(CCN(C)C)ccc12 [Compound 1180]		inhibition at 0.3 µM ('+' class symbols): 0 to 25%
Cc1cccc(CCC(=O)Nc2cccc3c(=O)n(CCN(C)C)ccc23)c1 [Compound 1181]		inhibition at 0.3 µM ('+' class symbols): 0 to 25%
CN(C)CCn1ccc2c(NC(=O)c3cc4cc(Cl)ccc4o3)cccc2c1=O [Compound 1182]		inhibition at 0.3 µM ('+' class symbols): 0 to 25%
Cc1cccc(C(=O)Nc2cccc3c(=O)n(CCN(C)C)ccc23)c1Cl [Compound 1183]		inhibition at 0.3 µM ('+' class symbols): 0 to 25%
COc1ccc(C(=O)Nc2cccc3c(=O)n(CCN(C)C)ccc23)cc1C [Compound 1184]		inhibition at 0.3 µM ('+' class symbols): 0 to 25%
Cc1ccc(CCC(=O)Nc2cccc3c(=O)n(CCN(C)C)ccc23)c(C)c1 [Compound 1185]		inhibition at 0.3 µM ('+' class symbols): 0 to 25%
CN(C)CCn1ccc2c(NC(=O)CCc3cccc(Cl)c3)cccc2c1=O [Compound 1186]		inhibition at 0.3 µM ('+' class symbols): 51 to 75%
CC(C)Cc1ccc(C(=O)Nc2cccc3c(=O)n(CCN(C)C)ccc23)cc1 [Compound 1187]		inhibition at 0.3 µM ('+' class symbols): 0 to 25%
O=C(Nc1cccc2c(=O)n(CCN3CCOCC3)ccc12)c1ccccc1Cl [Compound 1188]		inhibition at 0.3 µM ('+' class symbols): 0 to 25%
O=C(Nc1cccc2c(=O)n(CCN3CCOCC3)ccc12)c1ccc(Cl)cc1Cl [Compound 1189]		inhibition at 0.3 µM ('+' class symbols): 0 to 25%
O=C(Nc1cccc2c(=O)n(CCN3CCOCC3)ccc12)c1cc(Cl)ccc1Cl [Compound 1190]		inhibition at 0.3 µM ('+' class symbols): 0 to 25%
Cc1ccccc1C(=O)Nc1cccc2c(=O)n(CCN3CCOCC3)ccc12 [Compound 1191]		inhibition at 0.3 µM ('+' class symbols): 0 to 25%
Cc1cccc(C(=O)Nc2cccc3c(=O)n(CCN4CCOCC4)ccc23)c1C [Compound 1192]		inhibition at 0.3 µM ('+' class symbols): 26 to 50%
Cc1ccc(C(=O)Nc2cccc3c(=O)n(CCN4CCOCC4)ccc23)c(C)c1 [Compound 1193]		inhibition at 0.3 µM ('+' class symbols): 0 to 25%
Cc1ccc(C)c(C(=O)Nc2cccc3c(=O)n(CCN4CCOCC4)ccc23)c1 [Compound 1194]		inhibition at 0.3 µM ('+' class symbols): 0 to 25%
O=C(Nc1cccc2c(=O)n(CCN3CCOCC3)ccc12)c1cc(Cl)cc(Cl)c1 [Compound 1195]		inhibition at 0.1 µM [1]: 0 to 25%
COc1cc(OC)cc(C(=O)Nc2cccc3c(=O)n(CCN4CCOCC4)ccc23)c1 [Compound 1196]		inhibition at 0.1 µM [1]: 0 to 25%
Cc1cccc(C(=O)Nc2cccc3c(=O)n(CCN4CCOCC4)ccc23)c1 [Compound 1197]		inhibition at 0.1 µM [1]: 0 to 25%
CCOc1ccc(C(=O)Nc2cccc3c(=O)n(CCN4CCOCC4)ccc23)cc1 [Compound 1198]		inhibition at 0.1 µM [2]: 0 to 25%
CC(C)(C)c1ccc(C(=O)Nc2cccc3c(=O)n(CCN4CCOCC4)ccc23)cc1 [Compound 1199]		inhibition at 0.1 µM [2]: 0 to 25%

SMILES	inhibition at 0.3 µM (symbols + to ++++)	other results
CC(C(=O)Nc1cccc2c(=O)n(CCN3CCOCC3)ccc12)c1ccccc1 (stereo not drawn) [Compound 1200]	0 to 25%	
COc1ccccc1CCC(=O)Nc1cccc2c(=O)n(CCN3CCOCC3)ccc12 [Compound 1201]		inhibition at 0.1 µM [2]: 0 to 25%
COc1ccc(CCC(=O)Nc2cccc3c(=O)n(CCN4CCOCC4)ccc23)cc1 [Compound 1202]	0 to 25%	
O=C(Cc1cccc2ccccc12)Nc1cccc2c(=O)n(CCN3CCOCC3)ccc12 [Compound 1203]	0 to 25%	
O=C(Cc1ccccc1F)Nc1cccc2c(=O)n(CCN3CCOCC3)ccc12 [Compound 1204]	0 to 25%	
O=C(Cc1ccccc1Cl)Nc1cccc2c(=O)n(CCN3CCOCC3)ccc12 [Compound 1205]	0 to 25%	
COc1ccccc1CC(=O)Nc1cccc2c(=O)n(CCN3CCOCC3)ccc12 [Compound 1206]	0 to 25%	
COc1ccc(OC)c(CC(=O)Nc2cccc3c(=O)n(CCN4CCOCC4)ccc23)c1 [Compound 1207]	0 to 25%	
Cc1ccccc1CC(=O)Nc1cccc2c(=O)n(CCN3CCOCC3)ccc12 [Compound 1208]	0 to 25%	
COc1cccc(CC(=O)Nc2cccc3c(=O)n(CCN4CCOCC4)ccc23)c1 [Compound 1209]	0 to 25%	
COc1ccc(CC(=O)Nc2cccc3c(=O)n(CCN4CCOCC4)ccc23)cc1OC [Compound 1210]	0 to 25%	
Cc1cccc(CC(=O)Nc2cccc3c(=O)n(CCN4CCOCC4)ccc23)c1 [Compound 1211]	0 to 25%	
COc1ccc(CC(=O)Nc2cccc3c(=O)n(CCN4CCOCC4)ccc23)cc1 [Compound 1212]	0 to 25%	
CCOc1ccc(CC(=O)Nc2cccc3c(=O)n(CCN4CCOCC4)ccc23)cc1 [Compound 1213]	0 to 25%	
Cc1ccc(CC(=O)Nc2cccc3c(=O)n(CCN4CCOCC4)ccc23)cc1 [Compound 1214]	0 to 25%	
O=C(CCCc1ccccc1)Nc1cccc2c(=O)n(CCN3CCOCC3)ccc12 [Compound 1215]	0 to 25%	
O=C(Nc1cccc2c(=O)n(CCN3CCOCC3)ccc12)c1cc2ccccc2o1 [Compound 1216]	0 to 25%	
O=C(Cc1ccc2c(c1)OCO2)Nc1cccc2c(=O)n(CCN3CCOCC3)ccc12 [Compound 1217]	0 to 25%	
COc1cc(CC(=O)Nc2cccc3c(=O)n(CCN4CCOCC4)ccc23)cc(OC)c1 [Compound 1218]	26 to 50%	
COc1c(C)cc(C(=O)Nc2cccc3c(=O)n(CCN4CCOCC4)ccc23)cc1C [Compound 1219]	26 to 50%	
Cc1ccc(C(=O)Nc2cccc3c(=O)n(CCN4CCOCC4)ccc23)cc1Cl [Compound 1220]	0 to 25%	
Cc1cc(Cl)ccc1C(=O)Nc1cccc2c(=O)n(CCN3CCOCC3)ccc12 [Compound 1221]	0 to 25%	

SMILES	inhibition at 0.3 µM (symbols + to ++++)	other results
O=C(CC1CC2CC[C@H]1C2)Nc1cccc2c(=O)n(CCN3CCOCC3)ccc12 (stereo partly drawn) [Compound 1222]	0 to 25%	
O=C(Nc1cccc2c(=O)n(CCN3CCOCC3)ccc12)[C@@]12C[C@@H]3C[C@@H](C[C@@H]1C3)C2 [Compound 1223]	0 to 25%	
O=C(Nc1cccc2c(=O)n(CCN3CCOCC3)ccc12)c1cccc2c1OCCO2 [Compound 1224]	0 to 25%	
O=C(Nc1cccc2c(=O)n(CCN3CCOCC3)ccc12)c1ccc2c(c1)OCCCO2 [Compound 1225]	0 to 25%	
O=C(Cc1csc2ccccc12)Nc1cccc2c(=O)n(CCN3CCOCC3)ccc12 [Compound 1226]	0 to 25%	
Cc1c(Cl)cccc1C(=O)Nc1cccc2c(=O)n(CCN3CCOCC3)ccc12 [Compound 1227]	0 to 25%	
Cc1cc(C)cc(CC(=O)Nc2cccc3c(=O)n(CCN4CCOCC4)ccc23)c1 [Compound 1228]	0 to 25%	
COc1ccc(CC(=O)Nc2cccc3c(=O)n(CCN4CCOCC4)ccc23)c(OC)c1 [Compound 1230]	0 to 25%	
Cc1cc(C(=O)Nc2cccc3c(=O)n(CCN4CCOCC4)ccc23)ccc1F [Compound 1231]	0 to 25%	
O=C(CCc1ccc(Cl)cc1)Nc1cccc2c(=O)n(CCN3CCOCC3)ccc12 [Compound 1232]	0 to 25%	
CCOc1ccccc1CC(=O)Nc1cccc2c(=O)n(CCN3CCOCC3)ccc12 [Compound 1233]	0 to 25%	
COc1ccc(CC(=O)Nc2cccc3c(=O)n(CCN4CCOCC4)ccc23)cc1C [Compound 1234]	0 to 25%	
Cc1ccc(Cl)c(C(=O)Nc2cccc3c(=O)n(CCN4CCOCC4)ccc23)c1 [Compound 1235]	0 to 25%	
Cc1ccc(Cl)cc1C(=O)Nc1cccc2c(=O)n(CCN3CCOCC3)ccc12 [Compound 1236]	0 to 25%	
Cc1cccc(CCC(=O)Nc2cccc3c(=O)n(CCN4CCOCC4)ccc23)c1 [Compound 1237]	26 to 50%	
O=C(Nc1cccc2c(=O)n(CCN3CCOCC3)ccc12)c1cc2cc(Cl)ccc2o1 [Compound 1238]	26 to 50%	
Cc1cccc(C(=O)Nc2cccc3c(=O)n(CCN4CCOCC4)ccc23)c1Cl [Compound 1239]	0 to 25%	
COc1ccc(C(=O)Nc2cccc3c(=O)n(CCN4CCOCC4)ccc23)cc1C [Compound 1240]	26 to 50%	
Cc1ccc(CCC(=O)Nc2cccc3c(=O)n(CCN4CCOCC4)ccc23)c(C)c1 [Compound 1241]	0 to 25%	
O=C(CCc1cccc(Cl)c1)Nc1cccc2c(=O)n(CCN3CCOCC3)ccc12 [Compound 1242]	26 to 50%	
CC(C)Cc1ccc(C(=O)Nc2cccc3c(=O)n(CCN4CCOCC4)ccc23)cc1 [Compound 1243]	0 to 25%	
CC(C)(C)Cn1ccc2c(NC(=O)c3ccccc3Cl)cccc2c1=O [Compound 1244]	0 to 25%	

From patent US8546579B2, “Bicycloheteroaryl compounds as P2X7 modulators and uses thereof” (Evotec (US) Inc., priority 2006, dated 2013)
